Data reported in US20120094829A1, “Active Compound Combinations Having Insecticidal and Acaricidal Properties” (BAYER CROPSCIENCE AG, priority 2009, published 2012).

Assays:
Assay type in all cases: in vivo
Spodoptera frugiperda = Spodoptera frugiperda test (sprayed cabbage leaves); settings: 100 g/ha, single active compound
Method: Spodoptera frugiperda Test
(§1) Solvents: 78 parts by weight of acetone • • 1.5 parts by weight of dimethylformamide
(§2) Emulsifier: 0.5 part by weight of alkylaryl polyglycol ether
(§3) To produce a suitable preparation of active compound, 1 part by weight of active compound is mixed with the stated amount of solvent and emulsifier, and the concentrate is diluted with emulsifier-containing water to the desired concentration.
Cabbage leaves (Brassica oleracea) are treated by being sprayed with the preparation of active compound of the desired concentration and are populated with larvae of the armyworm (Spodoptera frugiperda) while the leaves are still moist.
After the desired period of time, the kill in % is determined. 100% means that all caterpillars have been killed; 0% means that none of the caterpillars have been killed. The kill rates determined are entered into Colby's formula (see above).

Tetranychus urticae = Tetranychus urticae test (OP-resistant/spray treatment of bean leaf discs); settings: single active compound
Method: Tetranychus urticae Test (OP-Resistant/Spray Treatment)
as §1, §2, §3
Discs of bean leaves (Phaseolus vulgaris) which are infested by all stages of the greenhouse red spider mite (Tetranychus urticae) are sprayed with the active compound preparation of the desired concentration.
After the desired period of time, the effect in % is determined. 100% means that all of the spider mites have been killed; 0% means that none of the spider mites have been killed.

[1] = test system: Phaedon cochleariae larvae; test: Phaedon cochleariae larvae test (sprayed cabbage leaves); settings: single active compound
Method: Phaedon cochleariae Larvae Test
as §1, §2, §3
Cabbage leaves (Brassica oleracea) are treated by spraying with the active ingredient formulation of the desired concentration and populated with larvae of the mustard beetle (Phaedon cochleariae) while the leaves are still moist.
After the desired period of time, the kill in % is determined. 100% means that all beetle larvae have been killed; 0% means that none of the beetle larvae have been killed. The kill rates determined are entered into Colby's formula (see above).

Myzus persicae = Myzus persicae test (spray treatment of infested cabbage leaves); settings: single active compound; for Kill in % after 6d: 0.8 g/ha; for Kill in % after 1d: 4 g/ha
Method: as §1, §2, §3
Cabbage leaves (Brassica oleracea) which are heavily infested by the green peach aphid (Myzus persicae) are treated by spraying with the active compound preparation of the desired concentration.
After the desired period of time, the kill in % is determined. 100% means that all of the aphids have been killed; 0% means that none of the aphids have been killed. The kill rates determined are entered into Colby's formula (see above).

Compound	Kill in % after 6d (Spodoptera frugiperda)	Kill in % after 2d (Tetranychus urticae; 4 g/ha)	Kill in % after 6d (Tetranychus urticae; 4 g/ha)	Kill in % after 2d ([1]; 100 g/ha)	Kill in % after 6d (Myzus persicae)	Kill in % after 1d (Myzus persicae)	Kill in % after 2d (Tetranychus urticae; 20 g/ha)	Kill in % after 2d ([1]; 20 g/ha)	Kill in % after 6d ([1]; 20 g/ha)
O=C1C=C(N(CCF)Cc2ccc(Cl)nc2)CO1 [compound (I-4), 4-{[(6-chloropyrid-3-yl)methyl](2-fluoroethyl)amino}furan-2(5H)-one]	0%	0%	0%	33%	0%	20%			
O=C1C=C(N(Cc2ccc(Cl)nc2)CC(F)F)CO1 [compound (I-5), 4-{[(6-chloropyrid-3-yl)methyl](2,2-difluoroethyl)amino}furan-2(5H)-one]		0%	0%		30%		0%	0%	
CN(Cc1cnc(Cl)c(F)c1)C1=CC(=O)OC1 [compound (I-6), 4-{[(6-chloro-5-fluoropyrid-3-yl)methyl](methyl)amino}furan-2(5H)-one]		0%	0%						0%
CCC(C)(C)C(=O)OC1=C(c2ccc(Cl)cc2Cl)C(=O)OC12CCCCC2 [spirodiclofen, reference compound]						0%			
Cc1cc(C)c(C2=C(OC(=O)CC(C)(C)C)C3(CCCC3)OC2=O)c(C)c1 [spiromesifen, reference compound]		20%	70%			0%			
spirotetramat [reference compound]	0%	20%		50%	20%		70%	0%	0%
